{
  "source": "ChEMBL document CHEMBL2413072",
  "about": "“Synthesis and in vitro anticancer studies of novel C-2 arylidene congeners of lantadenes” (2013)",
  "type_in_all_cases": "functional",
  "key": {"[1]": {"tested_on": "UO-31", "assay": "Growth inhibition of human UO31 cells assessed as cell growth at 10^-6 M by sulforhodamine B assay", "conditions": "read-out: Activity"}, "[2]": {"tested_on": "DU-145", "assay": "Growth inhibition of human DU145 cells assessed as cell growth at 10^-6 M by sulforhodamine B assay", "conditions": "read-out: Activity"}, "[3]": {"assay": "Growth inhibition of human Hs 578T cells assessed as cell growth at 10^-4 M by sulforhodamine B assay", "conditions": "read-out: Activity"}, "[4]": {"tested_on": "SK-MEL-2", "assay": "Growth inhibition of human SK-MEL-2 cells assessed as cell growth at 10^-6 M by sulforhodamine B assay", "conditions": "read-out: Activity"}, "[5]": {"tested_on": "T47D", "assay": "Growth inhibition of human T47D cells by sulforhodamine B assay"}, "[6]": {"tested_on": "SNB-75", "assay": "Growth inhibition of human SNB75 cells assessed as cell growth at 10^-8 M by sulforhodamine B assay", "conditions": "read-out: Activity"}, "[7]": {"tested_on": "MDA-MB-435", "assay": "Growth inhibition of human MDA-MB-435 cells assessed as cell growth at 10^-4 M by sulforhodamine B assay", "conditions": "read-out: Activity"}, "[8]": {"tested_on": "MOLT-4", "assay": "Growth inhibition of human MOLT4 cells assessed as cell growth at 10^-8 M by sulforhodamine B assay", "conditions": "read-out: Activity"}, "[9]": {"tested_on": "TK-10", "assay": "Growth inhibition of human TK10 cells assessed as cell growth at 10^-8 M by sulforhodamine B assay", "conditions": "read-out: Activity"}, "[10]": {"tested_on": "OVCAR-8", "assay": "Growth inhibition of human OVCAR8 cells by sulforhodamine B assay"}, "[11]": {"tested_on": "SR", "assay": "Growth inhibition of human SR cells assessed as cell growth at 10^-4 M by sulforhodamine B assay", "conditions": "read-out: Activity"}, "[12]": {"tested_on": "OVCAR-8", "assay": "Growth inhibition of human OVCAR8 cells assessed as cell growth at 10^-7 M by sulforhodamine B assay", "conditions": "read-out: Activity"}, "[13]": {"tested_on": "LOX IMVI", "assay": "Growth inhibition of human LOXIMVI cells assessed as cell growth at 10^-7 M by sulforhodamine B assay", "conditions": "read-out: Activity"}, "[14]": {"tested_on": "BT-549", "assay": "Growth inhibition of human BT549 cells assessed as cell growth at 10^-4 M by sulforhodamine B assay", "conditions": "read-out: Activity"}, "[15]": {"tested_on": "NCI-H322M", "assay": "Growth inhibition of human NCI-H322M cells by sulforhodamine B assay"}, "[16]": {"tested_on": "K562", "assay": "Growth inhibition of human K562 cells by sulforhodamine B assay"}, "[17]": {"tested_on": "MCF7", "assay": "Growth inhibition of human MCF7 cells by sulforhodamine B assay"}, "[18]": {"assay": "Growth inhibition of human HCC2998 cells assessed as cell growth at 10^-8 M by sulforhodamine B assay", "conditions": "HCC 2998, read-out: Activity"}, "[19]": {"conditions": "read-out: LC50 (the source's name)"}, "[20]": {"conditions": "read-out: pLC50 (the source's name) (converted)"}},
  "data": [
    {"smiles": "CC(C)=CC(=O)O[C@@H]1CC(C)(C)C[C@H]2C3=CC[C@@H]4[C@@]5(C)CCC(=O)C(C)(C)[C@@H]5CC[C@@]4(C)[C@]3(C)CC[C@@]12C(=O)O", "values": [
      {"measurement": "growth at 1 µM", "setting": "[1]", "value": 82, "unit": "%"},
      {"measurement": "growth at 1 µM", "setting": "[2]", "value": 90, "unit": "%"},
      {"measurement": "growth at 100 µM", "setting": "[3]", "value": -10, "unit": "%"},
      {"measurement": "growth at 1 µM", "setting": "[4]", "value": 85, "unit": "%"},
      {"measurement": "GI50", "setting": "[5]; read-out: GI50", "value": 5.08, "unit": "µM"},
      {"measurement": "CC50", "setting": "[5]; [19]", "value": "> 100", "unit": "µM"},
      {"measurement": "TGI", "setting": "[5]; read-out: TGI", "value": "> 100", "unit": "µM"},
      {"measurement": "GI50", "setting": "[5]; read-out: pGI50 (converted)", "value": 5.13, "unit": "µM"},
      {"measurement": "CC50", "setting": "[5]; [20]", "value": "> 100", "unit": "µM"},
      {"measurement": "TGI", "setting": "[5]; read-out: pTGI (converted)", "value": "> 100", "unit": "µM"},
      {"measurement": "growth at 0.01 µM", "setting": "[6]", "value": 90, "unit": "%"},
      {"measurement": "growth at 100 µM", "setting": "[7]", "value": 1, "unit": "%"},
      {"measurement": "growth at 0.01 µM", "setting": "[8]", "value": 107, "unit": "%"},
      {"measurement": "growth at 0.01 µM", "setting": "[9]", "value": 96, "unit": "%"},
      {"measurement": "GI50", "setting": "[10]; read-out: GI50", "value": 3.81, "unit": "µM"},
      {"measurement": "CC50", "setting": "[10]; [19]", "value": "> 100", "unit": "µM"},
      {"measurement": "TGI", "setting": "[10]; read-out: TGI", "value": "> 100", "unit": "µM"},
      {"measurement": "GI50", "setting": "[10]; read-out: pGI50 (converted)", "value": 3.8, "unit": "µM"},
      {"measurement": "CC50", "setting": "[10]; [20]", "value": "> 100", "unit": "µM"},
      {"measurement": "TGI", "setting": "[10]; read-out: pTGI (converted)", "value": "> 100", "unit": "µM"},
      {"measurement": "growth at 100 µM", "setting": "[11]", "value": -15, "unit": "%"},
      {"measurement": "growth at 0.1 µM", "setting": "[12]", "value": 96, "unit": "%"},
      {"measurement": "growth at 0.1 µM", "setting": "[13]", "value": 92, "unit": "%"},
      {"measurement": "growth at 100 µM", "setting": "[14]", "value": -47, "unit": "%"},
      {"measurement": "GI50", "setting": "[15]; read-out: GI50", "value": 2870, "unit": "nM"},
      {"measurement": "LC50 (50% lethal concentration)", "setting": "[15]; read-out: LC50", "value": "> 100", "unit": "µM"},
      {"measurement": "TGI", "setting": "[15]; read-out: TGI", "value": 19.9, "unit": "µM"},
      {"measurement": "GI50", "setting": "[15]; read-out: pGI50 (converted)", "value": 2880, "unit": "nM"},
      {"measurement": "LC50 (50% lethal concentration)", "setting": "[15]; read-out: pLC50 (converted)", "value": "> 100", "unit": "µM"},
      {"measurement": "TGI", "setting": "[15]; read-out: pTGI (converted)", "value": 20, "unit": "µM"},
      {"measurement": "GI50", "setting": "[16]; read-out: GI50", "value": 3.47, "unit": "µM"},
      {"measurement": "LC50", "setting": "[16]; read-out: LC50", "value": "> 100", "unit": "µM"},
      {"measurement": "TGI", "setting": "[16]; read-out: TGI", "value": "> 100", "unit": "µM"},
      {"measurement": "GI50", "setting": "[16]; read-out: pGI50 (converted)", "value": 3.47, "unit": "µM"},
      {"measurement": "LC50", "setting": "[16]; read-out: pLC50 (converted)", "value": "> 100", "unit": "µM"},
      {"measurement": "TGI", "setting": "[16]; read-out: pTGI (converted)", "value": "> 100", "unit": "µM"},
      {"measurement": "GI50", "setting": "[17]; read-out: GI50", "value": 3.29, "unit": "µM"},
      {"measurement": "CC50", "setting": "[17]; [19]", "value": "> 100", "unit": "µM"},
      {"measurement": "TGI", "setting": "[17]; read-out: TGI", "value": "> 100", "unit": "µM"},
      {"measurement": "GI50", "setting": "[17]; read-out: pGI50 (converted)", "value": 3.31, "unit": "µM"},
      {"measurement": "CC50", "setting": "[17]; [20]", "value": "> 100", "unit": "µM"},
      {"measurement": "TGI", "setting": "[17]; read-out: pTGI (converted)", "value": "> 100", "unit": "µM"},
      {"measurement": "growth at 0.01 µM", "setting": "[18]", "value": 97, "unit": "%"}
    ]}
  ]
}
